For 30 molecules, IC50 results are on record in patent US20060069110A1, “Substituted heterocyclic compounds and methods of use” (priority 2004, published 2006).

The test concerns THP1 cells (LPS induced TNF release). Nature of the test: Lipopolysaccharide-Activated THP1 Cell TNF Production Assay. It counts as cell-based. The settings on record: Homo sapiens, THP-1; THP1 cells, bacterial LPS, secreted TNF-α after 3 h at 37° C.; read-out: IC50 values in the THP1 cell assay (LPS induced TNF release). The method, then:
Lipopolysaccharide-Activated THP1 Cell TNF Production Assay
THP1 cells are resuspended in fresh THP1 media (RPMI 1640, 10% heat-inactivated FBS, 1×PGS, 1×NEAA, plus 30 μM βME) at a concentration of 1E6/mL. One hundred microliters of cells per well are plated in a polystyrene 96-well tissue culture. One microgram per mL of bacterial LPS is prepared in THP1 media and is transferred to the wells. Test compounds are dissolved in 100% DMSO and are serially diluted 3 fold in a polypropylene 96-well microtiter plate (drug plate). HI control and LO control wells contain only DMSO. One microliter of test compound from the drug plate followed by 10 μL of LPS are transferred to the cell plate. The treated cells are induced to synthesize and secrete TNF-α at 37° C. for 3 h. Forty microliters of conditioned media are transferred to a 96-well polypropylene plate containing 110 μL of ECL buffer (50 mM Tris-HCl pH 8.0, 100 mM NaCl, 0.05% Tween 20, 0.05% NaN3 and 1% FBS) supplemented with 0.44 nM MAB610 monoclonal Ab (R&D Systems), 0.34 nM ruthenylated AF210NA polyclonal Ab (R&D Systems) and 44 μg/mL sheep anti-mouse M280 Dynabeads (Dynal). After a 2 h incubation at RT with shaking, the reaction is read on the ECL M8 Instrument (IGEN Inc.). A low voltage is applied to the ruthenylated TNF-α immune complexes, which in the presence of TPA (the active component in Origlo), results in a cyclical redox reaction generating light at […]. The amount of secreted TNF-α in the presence of compound compared with that in the presence of DMSO vehicle alone (HI control) is calculated using the formula: % control (POC)=(cpd−average LO)/(average HI−average LO)*100. Data (consisting of POC and inhibitor concentration in μM) is fitted to a 4-parameter equation (y=A+((B−A)/(1+((×/C)ôD))), where A is the minimum y (POC) value, B is the maximum y (POC), C is the x (cpd concentration) at the point of inflection and D is the slope factor) using a Levenburg-Marquardt non-linear regression algorithm.

One may read the IC50 as the concentration that gives 50% inhibition. With `CN(c1ccnc(NCCc2cccnc2)n1)c1nc(-c2ccccc2)ncc1C(N)=O` [Example 64, 4-(Methyl(2-(2-(pyridin-3-yl)ethylamino)pyrimidin-4-yl)amino)-2-phenyl-pyrimidine-5-carboxamide], the IC50 is ≤ 20 µM.
On to `NC(=O)c1cnc(-c2ccccc2)nc1Nc1ccnc(NCCc2cccnc2)n1` [Example 65, 2-Phenyl-4-(2-(2-(pyridin-3-yl)ethylamino)pyrimidin-4-ylamino)pyrimidine-5-carboxamide], for which the IC50 was ≤ 20 µM.
With `C[C@@H](Cc1cccc(CN)c1)Nc1nccc(N(C)c2nc(-c3ccccc3)ncc2F)n1` [Example 66, (S)-N^2-(1-(3-(Aminomethyl)phenyl)propan-2-yl)-N^4-(5-fluoro-2-phenylpyrimidin-4-yl)-N^4-methylpyrimidine-2,4-diamine], the half-maximal inhibitory concentration (IC50) is ≤ 20 µM.
Take `CN(c1ccnc(N[C@H]2CC[C@H](N)CC2)n1)c1nc(-c2ccccc2)ncc1F` [Example 67, N^2-(4-Aminocyclohexyl)-N^4-(5-fluoro-2-phenylpyrimidin-4-yl)-N^4-methyl-pyrimidine-2,4-diamine]: the 50% inhibitory concentration (IC50) is ≤ 20 µM.
In the case of `C[C@@H](Cc1cccc(CN)c1)Nc1nccc(N(C)c2nc(-c3ccccc3F)ncc2F)n1` [Example 68, N^2-((S)-1-(3-(Aminomethyl)phenyl)propan-2-yl)-N^4-(5-fluoro-2-(2-fluorophenyl)-pyrimidin-4-yl)-N^4-methylpyrimidine-2,4-diamine], the 50% inhibitory concentration (IC50) was ≤ 20 µM.
`CN(c1nc(NCCc2cccnc2)ncc1F)c1nc(-c2ccccc2)ncc1F` [Example 69, 5-Fluoro-N^4-(5-fluoro-2-phenylpyrimidin-4-yl)-N^4-methyl-N^2-(2-(pyridin-3-yl)-ethyl)pyrimidine-2,4-diamine]: the IC50 is ≤ 20 µM.
On to `CN(c1ccnc(-c2ccccc2)n1)c1nc(NCCc2cccnc2)ncc1F` [Example 70, 5-Fluoro-N^4-methyl-N^4-(2-phenylpyrimidin-4-yl)-N^2-(2-(pyridin-3-yl)ethyl)-pyrimidine-2,4-diamine], for which the concentration for half-maximal inhibition (IC50) is ≤ 20 µM.
Consider `CN(c1ccnc(NCCc2cccnc2)n1)c1ccnc(-c2ccccc2F)n1` [Example 71, N^4-(2-(2-Fluorophenyl)pyrimidin-4-yl)-N^4-methyl-N^2-(2-(pyridin-3-yl)ethyl)-pyrimidine-2,4-diamine], for which the half-inhibitory concentration (IC50) is ≤ 20 µM.
For `CN(c1ccnc(NCCc2cccnc2)n1)c1ccnc(-c2cccc(F)c2)n1` [Example 72, N^4-(2-(3-Fluorophenyl)pyrimidin-4-yl)-N^4-methyl-N^2-(2-(pyridin-3-yl)ethyl)-pyrimidine-2,4-diamine], the IC50 is ≤ 20 µM.
Turning to `CN(c1ccnc(NCCc2cccnc2)n1)c1ccnc(-c2ccc(F)cc2)n1` [Example 73, N^4-(2-(4-Fluorophenyl)pyrimidin-4-yl)-N^4-methyl-N^2-(2-(pyridin-3-yl)ethyl)-pyrimidine-2,4-diamine], the concentration for half-maximal inhibition (IC50) was ≤ 20 µM.
Regarding `CN(c1ccnc(NCCc2cccnc2)n1)c1ccnc(-c2ccsc2)n1` [Example 74, N^4-Methyl-N^2-(2-(pyridin-3-yl)ethyl)-N^4-(2-(thiophen-3-yl)pyrimidin-4-yl)-pyrimidine-2,4-diamine], the IC50 was ≤ 20 µM.
For `CN(c1ccnc(NCCc2cccnc2)n1)c1ccnc(-c2ccccc2C(F)(F)F)n1` [Example 75, N^4-Methyl-N^2-(2-(pyridin-3-yl)ethyl)-N^4-(2-(2-(trifluoromethyl)phenyl)pyrimidin-4-yl)pyrimidine-2,4-diamine] the value was ≤ 20 µM.
Take `CN(c1ccnc(NCCc2cccnc2)n1)c1ccnc(-c2cccc(F)c2F)n1` [Example 76, N^4-(2-(2,3-Difluorophenyl)pyrimidin-4-yl)-N^4-methyl-N^2-(2-(pyridin-3-yl)ethyl)-pyrimidine-2,4-diamine]: the 50% inhibitory concentration (IC50) was ≤ 20 µM.
For `CN(c1ccnc(NCCc2cccnc2)n1)c1ccnc(-c2ccc(F)cc2F)n1` [Example 77, N^4-(2-(2,4-Difluorophenyl)pyrimidin-4-yl)-N^4-methyl-N^2-(2-(pyridin-3-yl)ethyl)-pyrimidine-2,4-diamine], the half-maximal inhibitory concentration (IC50) is ≤ 20 µM.
For `CN(c1ccnc(NCCc2cccnc2)n1)c1ccnc(-c2cc(F)ccc2F)n1` [Example 78, N^4-(2-(2,5-Difluorophenyl)pyrimidin-4-yl)-N^4-methyl-N^2-(2-(pyridin-3-yl)ethyl)-pyrimidine-2,4-diamine], the IC50 was ≤ 20 µM.
Turning to `CN(c1ccnc(NCCc2cccnc2)n1)c1ccnc(-c2cccs2)n1` [Example 79, N^4-Methyl-N^2-(2-(pyridin-3-yl)ethyl)-N^4-(2-(thiophen-2-yl)pyrimidin-4-yl)-pyrimidine-2,4-diamine], the IC50 is ≤ 20 µM.
As for `C[C@@H](Cc1cccc(CN)c1)Nc1nccc(N(C)c2ccnc(-c3ccccc3F)n2)n1` [Example 83, N^2-((S)-1-(3-(Aminomethyl)phenyl)propan-2-yl)-N^4-(2-(2-fluorophenyl)pyrimidin-4-yl)-N^4-methylpyrimidine-2,4-diamine], the 50% inhibitory concentration (IC50) was ≤ 20 µM.
For `C[C@@H](Cc1cccc(CN)c1)Nc1nccc(N(C)c2ccnc(-c3cccc(F)c3)n2)n1` [Example 85, N^2-((S)-1-(3-(Aminomethyl)phenyl)propan-2-yl)-N^4-(2-(3-fluorophenyl)pyrimidin-4-yl)-N^4-methylpyrimidine-2,4-diamine] the value was ≤ 20 µM; for `C[C@@H](Cc1cccc(CN)c1)Nc1nccc(N(C)c2ccnc(-c3ccc(F)cc3)n2)n1` [Example 87, (S)-N^2-(1-(3-(Aminomethyl)phenyl)propan-2-yl)-N^4-(2-(4-fluorophenyl)pyrimidin-4-yl)-N^4-methylpyrimidine-2,4-diamine], ≤ 20 µM; for `C[C@@H](Cc1cccc(CN)c1)Nc1nccc(N(C)c2ccnc(-c3ccccc3)n2)n1` [Example 89, (S)-N^2-(1-(3-(Aminomethyl)phenyl)propan-2-yl)-N^4-methyl-N^4-(2-phenylpyrimidin-4-yl)pyrimidine-2,4-diamine], ≤ 20 µM.
Consider `C[C@@H](Cc1cccc(CN)c1)Nc1nccc(N(C)c2ccnc(-c3ccc(F)cc3F)n2)n1` [Example 91, N^2-((S)-1-(3-(Aminomethyl)phenyl)propan-2-yl)-N^4-(2-(2,4-difluorophenyl)-pyrimidin-4-yl)-N^4-methylpyrimidine-2,4-diamine], for which the IC50 was ≤ 20 µM.
For `CN(c1ccnc(N[C@H]2CC[C@H](N)CC2)n1)c1ccnc(-c2ccccc2F)n1` [Example 93, N^2-(4-Aminocyclohexyl)-N^4-(2-(2-fluorophenyl)pyrimidin-4-yl)-N^4-methyl-pyrimidine-2,4-diamine] the value was ≤ 20 µM.
As for `CN(c1ccnc(NCCN2CCOCC2)n1)c1ccnc(-c2ccccc2)n1` [Example 96, N^4-Methyl-N^2-(2-morpholinoethyl)-N^4-(2-phenylpyrimidin-4-yl)pyrimidine-2,4-diamine], the IC50 is ≤ 20 µM.
On to `CCOC(=O)c1cnc(-c2ccccc2)nc1Nc1ccnc(NCCc2ccccn2)n1` [Example 98, Ethyl 2-phenyl-4-(2-(2-(pyridin-2-yl)ethylamino)pyrimidin-4-ylamino)pyrimidine-5-carboxylate], for which the IC50 is ≤ 20 µM.
In the case of `CNC(=O)c1cnc(-c2ccccc2)nc1Nc1ccnc(NCCc2ccccn2)n1` [Example 99, N-Methyl-2-phenyl-4-(2-(2-(pyridin-2-yl)ethylamino)pyrimidin-4-ylamino)-pyrimidine-5-carboxamide], the 50% inhibitory concentration (IC50) was ≤ 20 µM.
For `CNC(=O)c1cnc(-c2ccccc2)nc1Nc1ccnc(NCCc2cccnc2)n1` [Example 101, N-Methyl-2-phenyl-4-(2-(2-(pyridin-3-yl)ethylamino)pyrimidin-4-ylamino)-pyrimidine-5-carboxamide] the value was ≤ 20 µM; for `COc1ccccc1-c1nccc(N(C)c2ccnc(NCCc3cccnc3)n2)n1` [Example 104, N^4-(2-(2-Methoxyphenyl)pyrimidin-4-yl)-N^4-methyl-N^2-(2-(pyridin-3-yl)ethyl)-pyrimidine-2,4-diamine], ≤ 20 µM; for `Cc1ccccc1-c1nccc(N(C)c2ccnc(NCCc3cccnc3)n2)n1` [Example 105, N^4-Methyl-N^2-(2-(pyridin-3-yl)ethyl)-N^4-(2-o-tolylpyrimidin-4-yl)pyrimidine-2,4-diamine], ≤ 20 µM.
On to `CN(c1ccnc(NCCc2ccccc2)n1)c1ccnc(-c2ccccc2)n1` [Example 106, N^4-Methyl-N^2-phenethyl-N^4-(2-phenylpyrimidin-4-yl)pyrimidine-2,4-diamine], for which the half-inhibitory concentration (IC50) was ≤ 20 µM.
Consider `CN(c1ccnc(NCCc2ccccn2)n1)c1ccnc(-c2ccccc2)n1` [Example 107, N^4-Methyl-N^4-(2-phenylpyrimidin-4-yl)-N^2-(2-(pyridin-2-yl)ethyl)pyrimidine-2,4-diamine], for which the IC50 is ≤ 20 µM.
